The subject of the test is co-culture of keratinocytes and melanocytes. Nature of the test: Inhibition of melanogenesis (depigmenting activity) in a co-culture of keratinocytes and melanocytes. The class given is cell-based. Particulars: for Class (maximum depigmenting activity): inhibition of melanogenesis relative to control; for IC50: co-culture of keratinocytes and melanocytes, read-out: IC50 (concentration for which a 50% inhibition of melanogenesis is observed). How it is done: This test corresponds to the one described in patent FR 2,734,825 filed by the Applicant, as well as in the article by R. Schmidt, P. Krien and M. Régnier, Anal. Biochem., 235(2), 113-18, (1996). This test is thus carried out on a co-culture of keratinocytes and melanocytes.
For each test compound, the IC50 value, which corresponds to the micromolar (μM) concentration for which a 50% inhibition of melanogenesis is observed, is determined.
Moreover, each of these compounds is classed as regards their maximum depigmenting activity:
Class 1: 10 to 30% inhibition of melanogenesis relative to the control (same experiment without test compound);
Class 2: 30 to 60% inhibition of melanogenesis relative to the control (same experiment without test compound);
Class 3: 60 to 100% inhibition of melanogenesis relative to the control (same experiment without test compound).

`CCOC(=O)Nc1ccc(O)cc1` [Compound of Example 1, N-Ethyloxycarbonyl-4-aminophenol]: the IC50 is 1 µM. In addition, the “Class (maximum depigmenting activity)” value (1 μM) was 3 to 1 μM (Class 3: 60 to 100% inhibition of melanogenesis relative to the control).

For the molecule `CCOC(=O)Nc1ccc(OC(=O)OCC)cc1` [Compound of Example 2, N-Ethyloxycarbonyl-O-ethyloxycarbonyl-4-aminophenol], the IC50 stood at 50 µM. Besides, the Class (maximum depigmenting activity) (200 μM) lay within 3 to 200.

For `CC(C)CCC[C@@H](C)[C@H]1CC[C@H]2[C@@H]3CC=C4C[C@@H](OC(=O)Nc5ccc(O)cc5)CC[C@]4(C)[C@H]3CC[C@]12C` [Compound of Example 3, N-Cholesteryloxycarbonyl-4-aminophenol], the IC50 is 10 µM. Besides, the Class (maximum depigmenting activity) (200 μM) lay within 3 to 200.

With `O=c1cc(CO)occ1O` [Kojic acid, reference compound], the IC50 amounted to 500 µM. Also, the Class (maximum depigmenting activity) (500 μM) was 2 to 500.

These data come from patent US6423854B1, “Aminophenol derivatives and their use in cosmetics” (L'Oreal, priority 1997, dated 2002).
